Source: patent US20240279338A1, “Combination Treatment of Cancer” (Ares Trading S.A., priority 2021, published 2024)

Experiments:
[1] = system: H22 cells; test: CD73low H22 syngeneic tumor model, tumor growth; assay type: in vivo; conditions: H22, female BALB/c mice; Day 16 post treatment initiation; Compound A 300 mg/kg po BID; bintrafusp alfa 24.6 mg/kg iv days 0, 3, 6
Description: (§1) Female BALB/c mice were inoculated with 1×10^6 H22 cells in the right upper flank and were treated with Compound A (300 mg/kg po, BID), bintrafusp alfa (24.6 mg/kg iv, days 0, 3, 6), Compound A+bintrafusp alfa, when average tumor volume reached approximately 55 mm3. Vehicle (po, BID) and isotype control antibody injections (20 mg/kg iv, days 0, 3, 6) were used as controls. (A) Average tumor volumes with SEM, and (B) individual tumor volumes are presented. Tumor volume data were analyzed using two-way ANOVA followed by Tukey's multiple comparison test.
(§2) To determine whether combined treatment with the dual A2A/A2B receptor inhibitor “Compound A” ((S)-7-Oxa-2-aza-spiro[4.5]decane-2-carboxylic acid [7-(3,6-dihydro-2H-pyran-4-yl)-4-methoxy-thiazolo[4,5-c]pyridin-2-yl]-amide) and bintrafusp alfa can inhibit tumor growth in either CD73^hi or CD73^low models, tumor growth was monitored in […] syngeneic tumor models. Animals were inoculated with either CD73^hi tumor cells (4T1, E0771, or EMT6) or with CD73^low MC38, H22 or MBT2 tumor cells. For all tumor models, animals were treated with either 1) vehicle and isotype, 2) Compound A and isotype, 3) vehicle and bintrafusp alfa, or 4) Compound A and bintrafusp alfa. […]

[2] = system: MBT2 cells; test: CD73low MBT2 syngeneic tumor model, tumor growth; assay type: in vivo; conditions: MBT2, female C3H mice; Day 14; Compound A 300 mg/kg po BID; bintrafusp alfa 24.6 mg/kg iv days 0, 3, 6
Description: as §1, with “C3H” for “BALB/c”, “MBT2” for “H22”, “53 mm^3.” for “55 mm3.”
as §2

[3] = system: ADORA2A (A2A); test: RNAseq gene expression in 4T1 tumors; assay type: in vivo, mice; conditions: bintrafusp alfa 24.6 mg/kg iv, Day 6 post treatment, vs isotype
Description: (§3) FIG. 4: Bintrafusp alfa increases expression of A2B in CD73h adenosine-rich 4T1 tumor model, but not in CD73^low adenosine-low MC38 tumor model. For the 4T1 tumor model, female BALB/c mice were inoculated with 2×10^5 4T1 cells into the right mammary fat pad. For the MC38 tumor model, female C57BL/6 mice were inoculated subcutaneously in the right flank with MC38 cells (1×10^6). Animals in both studies were randomized into the groups and treatments started when the average tumor size reached approximately 100-150 mm^3. For both models, there were 15 mice in each group. The animals were treated with isotype control (20 mg/kg, iv) or bintrafusp alfa (24.6 mg/kg, iv) on days 0, 1, and 2. Tumors were harvested on Day 6 post treatment start, flash frozen, and used for RNASeq analysis. Gene expression levels of (A) NT5E, (B) ADORA2A (A2A), and (C) ADORA2B (A2B) are presented as mean±SEM. P-values were calculated using two-way ANOVA.
(§4) To determine whether bintrafusp alfa treatment modulates expression of A2A or A2B receptors or NT5E (gene encoding CD73), mice with established 4T1 and MC38 tumors were treated with 20 mg/kg isotype antibody or 24.6 mg/kg bintrafusp alfa.

[4] = system: ADORA2B (A2B); test: RNAseq gene expression in 4T1 tumors; assay type: in vivo, mice; conditions: CD73hi 4T1 tumors; bintrafusp alfa 24.6 mg/kg iv; Day 6 post treatment; vs isotype
Description: as §3, §4

[5] = system: NT5E (CD73); test: RNAseq gene expression in 4T1 tumors; assay type: in vivo, mice; conditions: bintrafusp alfa 24.6 mg/kg iv, Day 6 post treatment, vs isotype
Description: as §3, §4

bintrafusp alfa: anti-PD-L1:TGFβRII fusion protein, CAS 1918149-01-5; human IgG1 antibody against PD-L1 fused to extracellular domain of human TGF-β receptor II
tumor growth inhibition, T/C [1]: 34.4% | tumor growth inhibition, T/C [2]: 29.9% | expression of A2A [3]: no changes | expression of A2B [4]: increased | expression of NT5E (CD73) [5]: no changes
